Test results as given in patent US20210338613A1, “FORMULATIONS AND METHODS FOR TRANSDERMAL ADMINISTRATION OF KETONES” (DYVE BIOSCIENCES, INC., priority 2018, published 2021).

Key:
[1] = tested on: tumors; assay: Survival of tumor-bearing mice treated with PI3K inhibitor BKM120 (Example 3); type: in vivo, C57/BL6 mice; conditions: Treatment Group 1: BKM120 37.5 mg/kg daily oral gavage with standard chow; not statistically different from Control (6.1 days)
Method: In this experiment, β-hydroxybutyrate (βHB) in formulations of the disclosure was tested for its ability to enhance the efficacy of PI3K inhibitors and compared to a ketogenic diet.
In vivo tests were performed as follows: C57/BL6 mice 8 weeks of age They were injected with […] cells in a 1:1 mix of growth media and matrigel. and tumors were allowed to grow to a minimum diameter of 0.6 cm before the initiation of treatment. All mice were treated daily with the P3K inhibitor BKM120 (37.5 mg/kg) by oral gavage and were given either a normal chow diet, a ketogenic diet, or a normal chow diet with there topically applied βHB. Trial design was built to assess this primary outcome: survival time. Treatment groups randomized as follows: […]
b. Treatment Group 1: BKM120 treatment with standard rodent chow c. Treatment Group 2: BKM120 treatment with ketogenic rodent chow d. Treatment Group 3: BKM120 treatment with standard rodent chow with 100 μL of βHB formulation applied topically twice daily. Formulations detailed below

[2] = Distance run on a treadmill (Example 4); type: in vivo, Wistar rats; conditions: 5 days; topical = Formulation D 100 μL twice daily; ketone ester as 30% of calories
Method: (§1) In vivo tests were performed as follows: Wistar rats were treated with either topically applied βHB or a ketone ester diet. The experiment lasted for 5 days. Trial design was built to assess these primary outcomes: the effects on distance run on a treadmill, and on time to complete an 8 arm radial maze. Treatment groups randomized as follows: a. Control Group: standard diet (calorically matched to all treatment groups) b. Treatment Group 1: ketone ester diet with chow that is supplemented with (R)-3-hydroxybutyl (R)-3-hydroxybutyrate as 30% of calories c. […] Formulations detailed below [table]

[3] = Time to complete an 8 arm radial maze (Example 4); type: in vivo, Wistar rats; conditions: 5 days; topical = Formulation D 100 μL twice daily; ketone ester as 30% of calories
Method: as §1

[4] = tested on: firefly luciferase-tagged syngeneic VM-M3 cells; assay: Survival of VM mice with metastatic cancer (Example 2); type: in vivo; conditions: VM-M3 implanted VM mice
Method: In this experiment, β-hydroxybutyrate (βHB) in formulations of the disclosure was tested for its ability to decrease tumor cell viability and prolong survival and compared to an orally delivered diet supplemented with either 1,3-butanediol (BD) or a ketone ester (KE), which are metabolized to the ketone bodies βHB and acetoacetate.
In vivo tests were performed as follows: Adult male inbred VM mice were implanted subcutaneously with firefly luciferase-tagged syngeneic VM-M3 cells. The mice were then fed a standard diet with no topical treatment, a standard diet supplemented with either 1,3-butanediol (BD) or a ketone ester (KE), or a standard diet with topically applied βHB. Trial design was built to assess this primary outcome: survival time. Treatment groups randomized as follows: […]
a. Control Group: standard diet rodent chow b. Treatment Group 1: standard diet rodent chow mixed with 20% 1,3-butanediol (BD) by volume and 1% saccharin for palatability c. Treatment Group 2: standard diet rodent chow mixed with 10% ketone esters (KE) by volume and 1% saccharin for palatability d. Treatment Group 3: standard diet rodent chow with 100 μL of βHB formulation applied topically twice daily. Formulations detailed below

[5] = Blood glucose levels in rats after ketone supplements (Example 5); type: in vivo, Sprague-Dawley rats; conditions: 10 g/kg intragastric gavage; 4-week study
Method: In this experiment, β-hydroxybutyrate (βHB) in formulations of the disclosure was tested for its ability to impact blood ketone and glucose levels and compared to oral delivery of various exogenous ketone supplements.
The experiment lasted for 28 days. Trial design was built to assess these primary outcomes: the effects on blood ketones and blood glucose. Blood samples were taken for analysis of glucose and βHB at baseline and, 0.5, 1, 4, 8, and 12 h post-treatment. Treatment groups randomized as follows:
Treatment Group 1: daily 10 g/kg dose via intragastric gavage of 1,3-butanediol (BD)
Treatment Group 2: daily 10 g/kg dose via intragastric gavage of sodium/potassium β-hydroxybutyrate (βHB) mineral salt (BMS)
Treatment Group 3: daily 10 g/kg dose via intragastric gavage of medium chain triglyceride oil (MCT)
Treatment Group 5: daily 10 g/kg dose via intragastric gavage of 1,3 butanediol acetoacetate diester (KE)
g. Treatment Group 6: 100 μL of βHB formulation applied topically daily.

## Nc1cc(C(F)(F)F)c(-c2cc(N3CCOCC3)nc(N3CCOCC3)n2)cn1 [BKM120]
[1]
  mean survival time: 6.7 days

## C[C@@H](O)CCOC(=O)C[C@@H](C)O [ketone ester diet, (R)-3-hydroxybutyl (R)-3-hydroxybutyrate]
[2]
  mean increase in treadmill distance vs control: 32%
[3]
  mean decrease in time to solve the maze vs control: 38%

## CC(O)CCO (stereo not drawn) [oral BD, 1,3-butanediol]
[4]; BD 20% or KE 10% in chow, topical = Formulation B 100 μL twice daily
  mean increase in mean survival time versus Control Group: 50.6%
[4]; Control Group 31.2 days, topical = Formulation B
  mean survival time: 47.0 days
[5]
  effect on blood glucose: did not significantly change blood glucose levels at any time point
